Several values for one entry are separate records, joined by “and”; a condition that tells them apart may be missing. Equal values may be shown once. Toxic doses and inconclusive results are not listed.

The assay relates to P388 leukemia ip, CD2F1 mice, survival T/C. Nature of the assay: NCI In Vivo Anticancer Drug Screen. Data for tumor model P388 Leukemia (intraperitoneal) in CD2F1 (CDF1) mice. Conditions: endpoint: median survival time, higher = longer survival. The procedure, abridged:
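Mice carrying the transplanted tumor received test compound or vehicle. Survival was recorded in each group, and the value is the treated-group measurement divided by that of the vehicle-treated control group.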

The mark [1] stands for this setting: dose: 60.0 mg/kg/injection, schedule: Q01DX005 (ip), vehicle: saline with Tween-80.
Where [2] appears, read: dose: 120.0 mg/kg/injection, schedule: Q01DX005 (ip), vehicle: saline with Tween-80.
Where [3] appears, read: dose: 240.0 mg/kg/injection, schedule: Q01DX005 (ip), vehicle: saline with Tween-80.
The mark [4] stands for this setting: dose: 50.0 mg/kg/injection, schedule: Q01DX005 (ip), vehicle: saline with Tween-80.
Where [5] appears, read: dose: 100.0 mg/kg/injection, schedule: Q01DX005 (ip), vehicle: saline with Tween-80.
Where [6] appears, read: dose: 200.0 mg/kg/injection, schedule: Q01DX005 (ip), vehicle: saline with Tween-80.
[7] abbreviates: dose: 100.0 mg/kg/injection, schedule: Q01DX009 (ip), vehicle: saline with Tween-80.
Setting [8] is: dose: 50.0 mg/kg/injection, schedule: Q01DX005 (ip), vehicle: Klucel (hydroxypropylcellulose) (HPC).
Where [9] appears, read: dose: 100.0 mg/kg/injection, schedule: Q01DX005 (ip), vehicle: Klucel (hydroxypropylcellulose) (HPC).
[10] abbreviates: dose: 200.0 mg/kg/injection, schedule: Q01DX005 (ip), vehicle: Klucel (hydroxypropylcellulose) (HPC).
Setting [11] is: dose: 100.0 mg/kg/injection, schedule: Q01DX001 (ip), vehicle: saline with Tween-80.
The mark [12] stands for this setting: dose: 200.0 mg/kg/injection, schedule: Q01DX001 (ip), vehicle: saline with Tween-80.
The mark [13] stands for this setting: dose: 400.0 mg/kg/injection, schedule: Q01DX001 (ip), vehicle: saline with Tween-80.
Where [14] appears, read: dose: 60.0 mg/kg/injection, schedule: Q01DX005 (ip), vehicle: Klucel (hydroxypropylcellulose) (HPC).
Setting [15] is: dose: 50.0 mg/kg/injection, schedule: Q04DX003 (ip), vehicle: saline with Tween-80.
Where [16] appears, read: dose: 200.0 mg/kg/injection, schedule: Q01DX009 (ip), vehicle: saline with Tween-80.
Setting [17] is: dose: 400.0 mg/kg/injection, schedule: Q01DX009 (ip), vehicle: saline with Tween-80.

For `CS(=O)(=O)C(=Cc1ccccc1Cl)S(C)(=O)=O`, the T/C reads like this: (dose: 50.0 mg/kg/injection, schedule: Q04DX003 (ip), vehicle: Klucel (hydroxypropylcellulose) (HPC)) 102 % of control; (dose: 100.0 mg/kg/injection, schedule: Q04DX003 (ip), vehicle: Klucel (hydroxypropylcellulose) (HPC)) 107 % of control; (dose: 200.0 mg/kg/injection, schedule: Q04DX003 (ip), vehicle: Klucel (hydroxypropylcellulose) (HPC)) 108 % of control.
For the compound `ClC(Cl)(Cl)C(c1ccc(Br)cc1)c1ccc(Br)cc1`, the T/C is, setting by setting: under setting [1], 95 % of control; under setting [2], 94 % of control; under setting [3], 95 % of control.
As to `COC(=O)/C=C(\CCl)N=[N+]=[N-]`, the T/C reads like this: under setting [1], 108 % of control; under setting [2], 109 % of control; under setting [3], 107 % of control.
With `CCOC(=O)NCCF`, the T/C (dose: 0.78 mg/kg/injection, schedule: Q01DX009 (ip), vehicle: saline) is 96 % of control; the T/C (dose: 1.56 mg/kg/injection, schedule: Q01DX009 (ip), vehicle: saline) was 101 % of control; the T/C (dose: 3.12 mg/kg/injection, schedule: Q01DX009 (ip), vehicle: saline) is 101 % of control.
In the case of `CC(C)CC1NC(=O)OC1=O` (stereo not drawn), the T/C was 98 % of control under setting [4], 94 % of control under setting [5] and 91 % of control under setting [6].
Regarding `O=C(O)CC1CCC1CC(=O)O` (stereo not drawn), the T/C was 95 % of control (dose: 50.0 mg/kg/injection, schedule: Q01DX009 (ip), vehicle: saline with Tween-80) and 95 % of control under setting [7].
On to `Clc1ccc(N2C(c3ccccc3)=N[C@@H](N3CCCCC3)[C@@H]2N2CCCCC2)cc1`, for which the T/C by setting is: under setting [8], 102 % of control; under setting [9], 98 % of control; under setting [10], 93 % of control.
As for `COc1ccc(-n2c(CSc3ccc(Cl)cc3)n[nH]c2=S)cc1`, the T/C is 104 % of control under setting [1], 96 % of control under setting [2] and 95 % of control under setting [3].
Regarding `C1COCCCOCCCOCCCC2(CCCOCCCOC1)CO2`, the T/C was 110 % of control under setting [4], 86 % of control under setting [5] and 109 % of control under setting [6].
With `CCCCCCCC#CC1(CCCC)Sc2ccccc2N1C` (stereo not drawn), the T/C is, setting by setting: under setting [1], 105 % of control; under setting [2], 110 % of control; under setting [3], 113 % of control.
For the compound `Cc1c/c(=N\O)c2c(=O)ccoc2n1O`, the T/C is 99 % of control (dose: 50.0 mg/kg/injection, schedule: Q01DX009 (ip), vehicle: suspension in saline); 98 % of control (dose: 100.0 mg/kg/injection, schedule: Q01DX009 (ip), vehicle: suspension in saline); 97 % of control (dose: 200.0 mg/kg/injection, schedule: Q01DX009 (ip), vehicle: suspension in saline).
For the compound `C[n+]1ccc(-c2nc(-c3cc[n+](C)cc3)nc(-c3cc[n+](C)cc3)n2)cc1`, the T/C by setting is: (dose: 25.0 mg/kg/injection, schedule: Q01DX001 (ip), vehicle: saline with Tween-80) 102 % of control; (dose: 50.0 mg/kg/injection, schedule: Q01DX001 (ip), vehicle: saline with Tween-80) 99 % of control; under setting [11], 108 % of control.
Consider `O=C(c1cc2c(cc1Br)OCO2)N1CCc2cc([N+](=O)[O-])ccc21`, for which the T/C (dose: 12.5 mg/kg/injection, schedule: Q01DX009 (ip), vehicle: other) is 118 % of control; the T/C (dose: 25.0 mg/kg/injection, schedule: Q01DX009 (ip), vehicle: other) is 110 % of control; the T/C (dose: 50.0 mg/kg/injection, schedule: Q01DX009 (ip), vehicle: other) is 105 % of control; the T/C (dose: 200.0 mg/kg/injection, schedule: Q01DX009 (ip), vehicle: other) is 104 % of control.
As for `O=C(O)Cn1/c(=N\N=C\c2ccc([N+](=O)[O-])cc2)sc2ccccc21`, the T/C is, setting by setting: under setting [11], 91 % of control; under setting [12], 89 % of control; under setting [13], 99 % of control.
As to `Cc1cc(NC(=O)Nc2cc(Cl)ccc2C)no1`, the T/C is 87 % of control under setting [14]; 93 % of control (dose: 120.0 mg/kg/injection, schedule: Q01DX005 (ip), vehicle: Klucel (hydroxypropylcellulose) (HPC)); 93 % of control (dose: 240.0 mg/kg/injection, schedule: Q01DX005 (ip), vehicle: Klucel (hydroxypropylcellulose) (HPC)).
Consider `COc1c2occc2c(CCl)c2ccc(=O)oc12`, for which the T/C is, setting by setting: (dose: 15.0 mg/kg/injection, schedule: Q01DX005 (ip), vehicle: Klucel (hydroxypropylcellulose) (HPC)) 115 % of control; (dose: 30.0 mg/kg/injection, schedule: Q01DX005 (ip), vehicle: Klucel (hydroxypropylcellulose) (HPC)) 111 % of control; under setting [14], 111 % of control and 116 % of control.
For the compound `Cc1cccc2c(Nc3ccc(NS(C)(=O)=O)cc3)c3ccccc3nc12`, the T/C by setting is: (dose: 0.53 mg/kg/injection, schedule: Q01DX009 (ip), vehicle: saline) 111 % of control; (dose: 0.8 mg/kg/injection, schedule: Q01DX009 (ip), vehicle: saline) 124 % of control; (dose: 7.5 mg/kg/injection, schedule: Q01DX009 (ip), vehicle: saline with Tween-80) 166 % of control; (dose: 33.0 mg/kg/injection, schedule: Q04DX003 (ip), vehicle: saline with Tween-80) 168 % of control; under setting [15], 163 % of control; (dose: 75.0 mg/kg/injection, schedule: Q04DX003 (ip), vehicle: saline with Tween-80) 163 % of control and 181 % of control. Also, the T/C (dose: 150.0 mg/kg/injection, schedule: Q04DX003 (ip), vehicle: saline with Tween-80) is 181 % of control and the T/C (dose: 300.0 mg/kg/injection, schedule: Q04DX003 (ip), vehicle: saline with Tween-80) was 122 % of control.
Turning to `CC1(C(=O)O)C2[Se]c3[se]ccc3C2C1(C)C(=O)O` (stereo not drawn), the T/C reads like this: under setting [4], 104 % of control; under setting [5], 96 % of control; under setting [6], 102 % of control.
In the case of `C=C1OC(C)=C(C(=O)OC(C)(C)C)C1C` (stereo not drawn), the T/C is 106 % of control under setting [11], 102 % of control under setting [12] and 105 % of control under setting [13].
Take `COC(=O)c1nc2nnc(N)n2c(-c2ccc(Cl)cc2)c1C`: the T/C under setting [1] is 100 % of control, the T/C under setting [2] was 101 % of control and the T/C under setting [3] was 96 % of control.
As for `COCCCN1C(=O)/C(=C/c2ccccn2)SC1=S`, the T/C is, setting by setting: (dose: 50.0 mg/kg/injection, schedule: Q01DX009 (ip), vehicle: saline) 97 % of control; (dose: 100.0 mg/kg/injection, schedule: Q01DX009 (ip), vehicle: saline) 96 % of control; (dose: 200.0 mg/kg/injection, schedule: Q01DX009 (ip), vehicle: saline) 96 % of control.
`Cn1ccc2c3c4ccccc4ccc3c3c(ccn3C)c21`: the T/C under setting [8] is 197 % of control, the T/C under setting [9] was 177 % of control and the T/C under setting [10] was 239 % of control.
Turning to `O=C1OC2CC13Cc1ccccc1C3(C(=O)O)CC2I` (stereo not drawn), the T/C was 104 % of control under setting [1], 106 % of control under setting [2] and 100 % of control under setting [3].
Turning to `O=C(Nc1ccccc1)c1ccccc1C(O)(c1ccccc1)c1ccc(Cl)cc1` (stereo not drawn), the T/C under setting [7] is 95 % of control, the T/C under setting [16] was 90 % of control and the T/C under setting [17] is 90 % of control.
For the compound `O=S(=O)(Nc1ccc(O)cc1)c1ccccc1`, the T/C by setting is: (dose: 25.0 mg/kg/injection, schedule: Q04DX003 (ip), vehicle: saline with Tween-80) 110 % of control; under setting [15], 100 % of control; under setting [7], 108 % of control; (dose: 100.0 mg/kg/injection, schedule: Q04DX003 (ip), vehicle: saline with Tween-80) 107 % of control; under setting [16], 100 % of control; (dose: 200.0 mg/kg/injection, schedule: Q04DX003 (ip), vehicle: saline with Tween-80) 100 % of control. Also, the T/C was 87 % of control under setting [17] and 100 % of control (dose: 400.0 mg/kg/injection, schedule: Q04DX003 (ip), vehicle: saline with Tween-80).
`CCN(CC)CCNc1ccc(COC(C)=O)c2sc3ccccc3c(=O)c12`: the T/C (dose: 6.25 mg/kg/injection, schedule: Q01DX005 (ip), vehicle: saline with Tween-80) is 109 % of control and 123 % of control; the T/C (dose: 12.5 mg/kg/injection, schedule: Q01DX005 (ip), vehicle: saline with Tween-80) is 121 % of control; the T/C under setting [4] was 118 % of control.

These data come from PubChem BioAssay AID330 (DTP/NCI, 2004).
